Results on one molecule are retold here after PMC5447021, “TNF Lectin-Like Domain Restores Epithelial Sodium Channel Function in Frameshift Mutants Associated with Pseudohypoaldosteronism Type 1B” (Frontiers in Immunology, 2017).

Experiment [1] deals with αI68fsβγ-ENaC. Put plainly: Whole-cell patch clamp, αI68fs + WT βγ. In kind it is cell-based, human. As for the experimental part: (§1) Point mutations of α-, β-, γ- and δ-hENaC and PHA1B frameshift mutations of α-hENaC were prepared with the QuikChange Lightning Site-Directed Mutagenesis Kit (Agilent Technologies, CA, USA). Mutagenic primers were designed individually with the Primer Design Program provided on the producer’s website or for the frameshift mutations the same base changes as reported in patients (see Table 2) were performed. Primers were ordered from Sigma-Aldrich, Vienna, Austria.
(§2) HEK-293 cells were transfected 1 day after cell seeding using X-tremeGENE HP DNA transfection reagent (Roche Diagnostics, Mannheim, Germany) according to the manufacturer’s protocol. A set of WT or mutant αβγ- or δβγ-hENaC, or α-, β-, γ-, or δ-hENaC alone was used, and the ratio of DNA to transfection reagent was 1:3. The expression was highest 48–72 h after transfection.
(§3) Electrophysiological experiments were performed as described in detail by Shabbir et al. ([16]). […] Currents were recorded with the patch clamp method in the whole-cell mode. The chamber contained 1 ml of the bath solution of the following composition (in mM): 145 NaCl, 2.7 KCl, 1.8 CaCl2, 2 MgCl2, 5.5 glucose, and 10 HEPES, adjusted to pH 7.4 with 1 M NaOH solution. Micropipettes were pulled from thin-walled borosilicate glass capillaries (Harvard Apparatus, Holliston, MA, USA) with a DMZ Zeitz Puller to obtain electrode resistances ranging from 2 to 5 MΩ. […]
For orientation: Patch clamp records ionic current or voltage across a cell membrane.

Experiment [2] relates to ENaC PHA1B point mutants. The conditions noted are these: PHA1B point mutants with WT subunits; cited from earlier work. An excerpt:
PHA1B is a very rare inherited disease caused by mutations in the genes encoding the α (SCNN1A), β (SCNN1B), or γ (SCNN1G), subunit of ENaC, resulting in defective transepithelial sodium transport ([28]). […] Loss-of-function mutations in ENaC genes translate into the salt-wasting genetic disease PHA1B ([33], [41]). […] Remarkably, amiloride-sensitive currents were restored ...

In experiment [3] the test system is αR438fs (co-expressed with βγ-ENaC). Put plainly: Whole-cell patch clamp, αR438fs + WT βγ. In kind it is cell-based, human. The following applies: read-out: EC50, solnatide, HEK-293, whole-cell, -100 mV, n = 7. As for the experimental part:
as §1, §2, §3

In experiment [4] the test system is αT169fs. Put plainly: Membrane abundance of αT169fs. Type of experiment: cell-based, human. The conditions noted are these: 200 nM, relative to WT control (=1). As for the experimental part: Cell surface biotinylation was performed as previously described ([26]). In brief, A549 cells or transiently transfected HEK-293 cells were grown in 10 cm dishes in 37°C, 5% CO2 incubator in DMEM medium supplemented with 5% FBS. […] Medium was aspirated, and then cells were washed twice with 10 ml ice-cold phosphate-buffered saline (PBS), covered with 2.5 mg EZ-Link Sulfo-NHS-SS-Biotin (Thermo Scientific, Rockford, USA), dissolved in 10 ml ice-cold PBS, and incubated at 4°C with gentle agitation for 30 min. Fifty milliliters of quenching solution were added to cells; then cells were scraped in solution and transferred to fresh 50 ml tube. Cell suspension was centrifuged at 500 × g for 3 min. Supernatant was discarded, and 5 ml of Tris-buffered saline (TBS) was added to the cell pellet. The cell pellet was resuspended and centrifuged at 500 × g for 3 min. Supernatant was discarded and cell pellet was resuspended in lysis buffer containing protease inhibitor cocktail (10 µM pepstatin A, 10 µM phenylmethylsulfonyl fluoride, and 10 µM leupeptin) and transferred to fresh 1.5 ml centrifuge tube. Cell pellet was then homogenized on ice by ultrasonication using 1 s bursts and incubated on ice for at least 30 min. Intact cells and nuclei were pelleted by centrifugation at 10,000 × g for 2 min under cooling conditions. […] Exposed films were scanned and quantified using ImageJ (NIH, MD, USA). […]

Structures are written as SMILES. “Also recorded” adds a separate entry of the source.

On to `C[C@@H]1NC(=O)CNC(=O)[C@H](CCC(=O)O)NC(=O)[C@@H]2CCCN2C(=O)[C@H]([C@@H](C)O)NC(=O)[C@H](CCC(=O)O)NC(=O)[C@H](CCCNC(=N)N)NC(=O)[C@H](CCC(N)=O)NC(=O)CNC(=O)[C@@H](N)CSSC[C@@H](C(=O)O)NC(=O)[C@H](Cc2ccc(O)cc2)NC(=O)[C@H](Cc2c[nH]c3ccccc23)NC(=O)[C@@H]2CCCN2C(=O)[C@H](CCCCN)NC(=O)[C@H](C)NC(=O)[C@H](CCC(=O)O)NC1=O` [solnatide, L-cysteine, L-cysteinylglycyl-L-glutaminyl-L-arginyl-L-α-glutamyl-L-threonyl-L-prolyl-L-α-glutamylglycyl-L-alanyl-L-α-glutamyl-L-alanyl-L-lysyl-L-prolyl-L-tryptophyl-L-tyrosyl-, cyclic (1→17)-disulfide], for which the half-maximal effective concentration (EC50) in experiment [1] (read-out: EC50, solnatide, αI68fs + WT βγ, HEK-293, whole-cell, -100 mV, n = 9) was determined as 73.4 ± 13.4 nM; in experiment [3] it was 56.6 ± 8 nM. Moreover, in experiment [1] (αI68fsβγ-ENaC, HEK-293), the “Effect of solnatide on current (words)” value is reported as “induced a current increase in αI68fsβγ-ENaC”. For the same molecule, the “Restoration of amiloride-sensitive currents” value in experiment [2] is “restored to WT control levels; also recorded: restoring current levels in these mutant ENaC-expressing cells to WT levels or even higher”. Besides, the “Membrane abundance, solnatide 5 min” value in experiment [4] (5 min, own control 0.54 ± 0.06, p < 0.001 vs control) came out at 0.80 ± 0.03. Moreover, the “Membrane abundance, solnatide 10 min” value in experiment [4] (10 min, own control 0.54 ± 0.06) stood at 0.46 ± 0.09.

Usually EC50 stands for the concentration at which the effect is half-maximal.
